Data: patent US20040038861A1, “Methods and compositions for normalizing lipid levels in mammalian tissues” (priority 2001, published 2004)

Experiments:
soleus muscle [1] = assay: Triglyceride and free fatty acid content (enzymatic) in isolated soleus muscle of rats fed high fat diets; assay type: cell-based, rat; details: 1 h
Excerpt: (§1) High-fatted rats. Groups of male Wistar rats (n=21/diet) were ad libitum fed high-fat diets containing standard rat chow to which 40% (w/w) of lard, corn oil or olive oil had been added, from the time of weaning (age=21 d) until sacrifice at 50 d. Triacylglycerol from lard contains predominantly saturated fatty acids; that from corn oil […], see Table 4.
(§2) Soleus muscle tissue isolation and incuhation.Immersion and incubation media was Krebs-Henseleit buffer (KHB) containing 118.5 mM NaCl, 4.75 mM KCl, 1.18 mM MgSO4.7H2O and KH2PO4, 24.8 mM NaHCO3, 2.54 mM CaCl2 and 10 mM d-glucose. The medium was gassed continuously with 95% O2/5% CO2. […] Soleus muscles of both legs were excised keeping the tissue immersed in KHB; muscles were separated into two equal parts and transferred to the incubation flasks. At the completion of incubation the muscles were snap frozen in liquid nitrogen, and then trimmed of connective tissue and all visible fat. The muscle strips were stored at −80° C. until analysis.
(§3) Lipid extraction and chromatographic separation of fatty acids. Total lipids were extracted from muscle strips by a modified version of the method of Bligh and Dyer (Gorski et al., 1988, Mol & Cell Biochem 178:113-118; 1. Bligh et al., 1959, Can J Biochem Physiol 37: 911-917). Muscles were homogenised (Soniprep 150) in 0.4 ml of deionised water. Solvent volumes used herein were varied according to the water content of the muscle (ie muscle weight) as described (Bligh & Dyer, supra). 2 vols of methanol containing 0.005% butylated hydroxy toluene (BHT) and 1 vol chloroform were added to the muscle suspension. Homogenates were vortexed at maximum speed for 2 minutes and centrifuged at 2,500 g for 4 minutes. Supernatants were recovered and pellets re-extracted with 2 vol methanol, 1 vol chloroform and 0.8 vol 0.2 N HCl. Residues were vortexed for 2 min then centrifuged at 3,500 g for 3 min. After centrifugation the combined supernatants were diluted with 2v each of milli Q water and chloroform and the phases separated by centrifugation at 3,500 g for 4 minutes. The lower chloroform phase was recovered, neutralised by dropwise addition of 0.2 N methanolic NH4OH and evaporated down in a stream of N2. The samples were stored at −80° C. until required.
(§4) Aminopropyl phase (250 mg) was packed into 16 ml teflon columns with teflon frits placed at the top and bottom of the bonded phase. Columns were placed in a Vac Elut apparatus and washed twice with 2 ml portions of hexane (Prasad et al., 1988, J Chromato 428: 221-228; Kaluzny et al., 1985, J Lipid Res 26: 135-140). The dry lipid samples were taken up in two 0.150 ml portions of chloroform and applied to the column under atmospheric pressure. After adsorption the neutral lipids were eluted with 4 ml of chloroform-2-propanol (2:1, v/v) and the free fatty acids eluted with 4 ml of 2% acetic acid in diethyl ether. The solvent containing the free fatty acids was dried under a stream of N2.
Determination of tissue free fatty acids and triacylglycerol concentration by enzymatic analyses. Free fatty acids were separated from total lipid, evaporated under a stream of N2 and stored at −80° C. until analysis. Samples were dissolved in 50 μl of warm ethanol (35-40° C.), and 0.625 ml of a Triton X-100 (6% w/v) solution was added once the ethanol reached room temperature. The solution was stirred for 30 min, then made up to 0.825 ml with the Triton solution. Free fatty acids were quantified using a commercial method (Boehringer Mannheim) adapted for micro analyses (Cobas Mira, Roche Diagnostics), with palmitic acid standards. Triacyl glycerol levels were quantified in the total lipid fraction (Pointe Scientific) with a glycerol standard.
Total lipid was extracted and quantitated. Results are shown in FIGS. 18A NEFA and 18B triglyceride.

soleus muscle [2] = assay: Individual free fatty acids by gas chromatography in soleus muscle of rats fed high fat diets; set-up: species or system rat; details: 1 hour, GC
Excerpt: as §1, §2, §3, §4
Gas-liquid chromatographic analysis. Dry free fatty acid residues were processed for derivatisation of methyl esters by the boron trifluoride-methanol method (Prasad, supra). 1 ml of boron trifluoride in methanol (BF3) was added to each sample, the sample vials were heated at 70° C. for 5 minutes, shaken vigorously, and baked for a further 10 minutes. Once the samples reached room temperature 0.5 ml milli Q water was added, the sample vials shaken, 0.1 ml heptane was added and the sample shaken again. 0.05 ml of the top heptane layer was removed for GLC analysis. A Model HP5890 Plus Series 2 (Hewlett-Packard) gas chromatograph equipped with a DB-225 column was used to separate the methyl esters of the fatty acids and a Model HP 5890 GC with a Model HP 5973 MS (Hewlett-Packard) GC/MS used to confirm the identity of individual free fatty acids. […]

[3] = rats fed diet high in olive oil

rat CGRP-1
soleus muscle triglyceride content (soleus muscle [1]; diet with 40% added lard, 100 nM amylin or CGRP-1, 4.4 μM norepinephrine, control 1.14±0.16): 0.75 ± 0.08 µmol/g
soleus muscle free fatty acid content (soleus muscle [1]; diet with 40% added lard, 100 nM amylin or CGRP-1, 4.4 μM norepinephrine, control 43±8): 64 ± 7 nmol/g
soleus muscle triglyceride content (soleus muscle [1]; diet with 40% corn oil, 100 nM, control 0.89±0.06 μmol/g): 0.48±0.06 [mol/g
soleus muscle free fatty acid content (soleus muscle [1]; diet with 40% corn oil, 100 nM, control 35±4): 99 ± 17 nmol/g
soleus muscle triglyceride content (soleus muscle [1]; diet with 40% olive oil, 100 nM, control 0.83±0.1): 0.52 ± 0.08 µmol/g
soleus muscle free fatty acid content (soleus muscle [1]; diet with 40% olive oil, 100 nM, control 15±3): 55 ± 14 nmol/g
free fatty acid adrenic C22:4 (soleus muscle [2]; rats fed diet high in corn oil): 0.04 ± 0.002 nmol/g wwt
free fatty acid arachidic C20:0 (soleus muscle [2]; rats fed diet high in corn oil): 0.03 ± 0.005 nmol/g wwt
free fatty acid arachidonic C20:4 (soleus muscle [2]; rats fed diet high in corn oil): 0.02 ± 0.002 nmol/g wwt
free fatty acid cervonic C22:6 (soleus muscle [2]; rats fed diet high in corn oil): 0.03 ± 0.003 nmol/g wwt
free fatty acid linoleic C18:2 (soleus muscle [2]; rats fed diet high in corn oil): 0.18 ± 0.008 nmol/g wwt
free fatty acid linolenic C18:3 (soleus muscle [2]; rats fed diet high in corn oil): 0.17 ± 0.01 nmol/g wwt
free fatty acid margaric C17:0 (soleus muscle [2]; rats fed diet high in corn oil): 0.02 ± 0.003 nmol/g wwt
free fatty acid myristic C14:0 (soleus muscle [2]; rats fed diet high in corn oil): 0.03 ± 0.02 nmol/g wwt
free fatty acid oleic C18:1 (soleus muscle [2]; rats fed diet high in corn oil): 0.16 ± 0.01 nmol/g wwt
free fatty acid palmitic C16:0 (soleus muscle [2]; rats fed diet high in corn oil): 0.16 ± 0.03 nmol/g wwt
free fatty acid palmitoleic (n-7) C16:1 (soleus muscle [2]; rats fed diet high in corn oil): 0.01 ± 0.0008 nmol/g wwt
free fatty acid palmitoleic (n-9) C16:1 (soleus muscle [2]; rats fed diet high in corn oil): 0.20 ± 0.008 nmol/g wwt
free fatty acid pentadecanoic C15:0 (soleus muscle [2]; rats fed diet high in corn oil): 0.04 ± 003 nmol/g wwt
free fatty acid stearic C18:0 (soleus muscle [2]; rats fed diet high in corn oil): 0.39 ± 0.02 nmol/g wwt
free fatty acid timnodonic C20:5 (soleus muscle [2]; rats fed diet high in corn oil): 0.04 ± 0.001 nmol/g wwt
free fatty acid vaccenic C18:1 (soleus muscle [2]; rats fed diet high in corn oil): 0.02 ± 0.004 nmol/g wwt
free fatty acid adrenic C22:4 (soleus muscle [2]; rats fed diet high in lard): 0.04 ± 0.005 nmol/g wwt
free fatty acid arachidic C20:0 (soleus muscle [2]; rats fed diet high in lard): 0.07 ± 0.004 nmol/g wwt
free fatty acid arachidonic C20:4 (soleus muscle [2]; rats fed diet high in lard): 0.02 ± 0.001 nmol/g wwt
free fatty acid cervonic C22:6 (soleus muscle [2]; rats fed diet high in lard): 0.015 ± 0.002 nmol/g wwt
free fatty acid linoleic C18:2 (soleus muscle [2]; rats fed diet high in lard): 0.23 ± 0.005 nmol/g wwt
free fatty acid margaric C17:0 (soleus muscle [2]; rats fed diet high in lard): 0.09 ± 0.01 nmol/g wwt
free fatty acid myristic C14:0 (soleus muscle [2]; rats fed diet high in lard): 0.03 ± 0.007 nmol/g wwt
free fatty acid oleic C18:1 (soleus muscle [2]; rats fed diet high in lard): 0.25 ± 0.02 nmol/g wwt
free fatty acid palmitic C16:0 (soleus muscle [2]; rats fed diet high in lard): 0.24 ± 0.01 nmol/g wwt
free fatty acid palmitoleic (n-7) C16:1 (soleus muscle [2]; rats fed diet high in lard): 0.02 ± 0.005 nmol/g wwt
free fatty acid palmitoleic (n-9) C16:1 (soleus muscle [2]; rats fed diet high in lard): 0.03 ± 0.003 nmol/g wwt
free fatty acid pentadecanoic C15:0 (soleus muscle [2]; rats fed diet high in lard): 0.14 ± 0.01 nmol/g wwt
free fatty acid stearic C18:0 (soleus muscle [2]; rats fed diet high in lard): 0.35 ± 0.06 nmol/g wwt
free fatty acid timnodonic C20:5 (soleus muscle [2]; rats fed diet high in lard): 0.02 ± 0.002 nmol/g wwt
free fatty acid vaccenic C18:1 (soleus muscle [2]; rats fed diet high in lard): 0.03 ± 0.006 nmol/g wwt
free fatty acid adrenic C22:4 (soleus muscle [2]; [3]): 0.03 ± 0.006 nmol/g wwt
free fatty acid arachidic C20:0 (soleus muscle [2]; [3]): 0.04 ± 0.001 nmol/g wwt
free fatty acid arachidonic C20:4 (soleus muscle [2]; [3]): 0.02 ± 0.007 nmol/g wwt
free fatty acid cervonic C22:6 (soleus muscle [2]; [3]): 0.11 ± 0.03 nmol/g wwt
free fatty acid linoleic C18:2 (soleus muscle [2]; [3]): 0.06 ± 0.01 nmol/g wwt
free fatty acid linolenic C18:3 (soleus muscle [2]; [3]): 0.03 ± 0.0009 nmol/g wwt
free fatty acid margaric C17:0 (soleus muscle [2]; [3]): 0.03 ± 0.012 nmol/g wwt
free fatty acid myristic C14:0 (soleus muscle [2]; [3]): 0.015 ± 0.0009 nmol/g wwt
free fatty acid oleic C18:1 (soleus muscle [2]; [3]): 0.34 ± 0.01 nmol/g wwt
free fatty acid palmitic C16:0 (soleus muscle [2]; [3]): 0.20 ± 0.006 nmol/g wwt
free fatty acid palmitoleic (n-7) C16:1 (soleus muscle [2]; [3]): 0.02 ± 0.002 nmol/g wwt
free fatty acid palmitoleic (n-9) C16:1 (soleus muscle [2]; [3]): 0.27 ± 0.013 nmol/g wwt
free fatty acid pentadecanoic C15:0 (soleus muscle [2]; [3]): 0.08 ± 002 nmol/g wwt
free fatty acid stearic C18:0 (soleus muscle [2]; [3]): 0.12 ± 0.004 nmol/g wwt
free fatty acid timnodonic C20:5 (soleus muscle [2]; [3]): 0.01 ± 0.001 nmol/g wwt
free fatty acid vaccenic C18:1 (soleus muscle [2]; [3]): 0.17 ± 0.008 nmol/g wwt
